Measurements from patent publication US10358436B2, “Kinase inhibitors and method of treating cancer” (University Health Network, priority 2010, dated 2019).

Columns and labels:
Aurora A = Aurora A (Homo sapiens (Human), UniProt O14965); test: Aurora A inhibition assay (Z-Lyte); assay type: biochemical
AMPKalpha = test: Kinase selectivity assay (CEREP HTRF panel); assay type: biochemical, human
FLT3 = FLT3 (Homo sapiens (Human), UniProt P36888); test: Kinase selectivity assay (CEREP HTRF panel); assay type: biochemical
Method: (§2) The assays were performed using standard HTRF assay methods as documented by CEREP against the human orthologues of Ab1 kinase, Akt1/PKBa, AMPKa, BMX kinase (Etk), Brk, CaMK2a, CaMK4, CDC2/CDK1 (cycB), CHK1, CHK2, c-Met kinase, CSK, EphB4 kinase, ERK1, ERK2 (P42mapk), FGFR2 kinase, FGFR4 kinase, FLT-1 kinase (VEGFR1), FLT-3 kinase, Fyn kinase, IGF1R kinase, IRK (InsR), JNK 2, KDR kinase (VEGFR2), Lck kinase, Lyn kinase, MAPKAPK2, MEK1/MAP2K1, p38a kinase, p38d kinase, p38 g kinase, PDGFRb kinase, PDK1, PKA, PKCa, PKCb1, PKCb2, PKCg, Ret kinase, ROCK2, RSK2, Src kinase, Syk, and TRKA (Table 3).

KDR kinase (VEGFR2) = KDR kinase (VEGFR2) (Homo sapiens (Human), UniProt P35968); test: Kinase selectivity assay (CEREP HTRF panel); assay type: biochemical
Method: as §2

HUV-EC-C cells = test: In vitro angiogenesis assay (tube formation); assay type: cell-based; settings: 4 hr
Method: Activity against these RTKs can result in antiangiogenic activity which is associated with slowed tumor growth and/or tumor regression. To measure the antiangiogenic effects of compounds of the invention, selected examples were tested in an angiogenesis assay as described below.
HUV-EC-C cells were obtained from the American Type Culture Collection (ATCC, CRL-1730), and were used at early passage for the assay. The in vitro Angiogenesis Assay Kit (Chemicon) was used according to the manufacturer's recommendation. An ice-cold mixture of ECMatrix was transferred into a precooled 96-well plate. After the matrix solution had solidified (>1 hr incubation at 37° C.), 8,000 cells were mixed with the appropriate inhibitor concentration (in 100 microliters EGM-2) and plated into each well. The clinical antiangiogenic, Sutent was used as a positive control in comparison to a compound of the invention, A13. After incubation at 37° C. for 4 hr, tube formation was inspected. Two methods, pattern recognition and branch point counting, were used to quantify the progression of angiogenesis and expressed as a percentage of the control tube count (FIGS. 1 and 2).

PLK2 = PLK2 (Homo sapiens (Human), UniProt Q9NYY3); test: PLK2 inhibition assay (Z-Lyte); assay type: biochemical
Method: (§1) PLK2 inhibition was determined using the Z-Lyte assay kit from Invitrogen (cat #PV3802). The assay was performed using the recommended manufacturer's instructions with 60 μM ATP and 133 nM PLK2 (Invitrogen cat #PV4204). The % inhibition values were determined according to the manufacturer's directions and IC50 values were obtained using a non-linear 4 point logistic curve fit (XLfit4, IDBS)

PLK3 = PLK3 (Homo sapiens (Human), UniProt Q9H4B4); test: PLK3 inhibition assay (Z-Lyte); assay type: biochemical
Method: as §1, with “PLK3” for “PLK2”, “100” for “60”, “21” for “133”, “#PV3812).” for “#PV4204).”, “IDBS).” for “IDBS)”

Abl = Abl (Homo sapiens (Human), UniProt P00519); test: Kinase selectivity assay (CEREP HTRF panel); assay type: biochemical
Akt1/PKBalpha = Akt1/PKBalpha (Homo sapiens (Human), UniProt P31749); test: Kinase selectivity assay (CEREP HTRF panel); assay type: biochemical
BMX kinase (Etk) = BMX kinase (Etk) (Homo sapiens (Human), UniProt P51813); test: Kinase selectivity assay (CEREP HTRF panel); assay type: biochemical
Brk = Brk (Homo sapiens (Human), UniProt Q13882); test: Kinase selectivity assay (CEREP HTRF panel); assay type: biochemical
CaMK4 = CaMK4 (Homo sapiens (Human), UniProt Q16566); test: Kinase selectivity assay (CEREP HTRF panel); assay type: biochemical
CDC2/CDK1 (cycB) = CDC2/CDK1 (cycB) (Homo sapiens (Human), UniProt P06493); test: Kinase selectivity assay (CEREP HTRF panel); assay type: biochemical
CHK1 = CHK1 (Homo sapiens (Human), UniProt O14757); test: Kinase selectivity assay (CEREP HTRF panel); assay type: biochemical
CHK2 = CHK2 (Homo sapiens (Human), UniProt O96017); test: Kinase selectivity assay (CEREP HTRF panel); assay type: biochemical
c-Met kinase = c-Met kinase (Homo sapiens (Human), UniProt P08581); test: Kinase selectivity assay (CEREP HTRF panel); assay type: biochemical
CSK = CSK (Homo sapiens (Human), UniProt P41240); test: Kinase selectivity assay (CEREP HTRF panel); assay type: biochemical
EphB4 kinase = EphB4 kinase (Homo sapiens (Human), UniProt P54760); test: Kinase selectivity assay (CEREP HTRF panel); assay type: biochemical
ERK1 = ERK1 (Homo sapiens (Human), UniProt P27361); test: Kinase selectivity assay (CEREP HTRF panel); assay type: biochemical
ERK2 (P42mapk) = ERK2 (P42mapk) (Homo sapiens (Human), UniProt P28482); test: Kinase selectivity assay (CEREP HTRF panel); assay type: biochemical; settings: read-out: % Inhibition @ 10 uM, ERK (P42mapk)
FGFR4 kinase = FGFR4 kinase (Homo sapiens (Human), UniProt P22455); test: Kinase selectivity assay (CEREP HTRF panel); assay type: biochemical
Fyn kinase = Fyn kinase (Homo sapiens (Human), UniProt P06241); test: Kinase selectivity assay (CEREP HTRF panel); assay type: biochemical
IGF1R kinase = IGF1R kinase (Homo sapiens (Human), UniProt P08069); test: Kinase selectivity assay (CEREP HTRF panel); assay type: biochemical
IRK (InsR) = IRK (InsR) (Homo sapiens (Human), UniProt P06213); test: Kinase selectivity assay (CEREP HTRF panel); assay type: biochemical
JNK 2 = JNK 2 (Homo sapiens (Human), UniProt P45984); test: Kinase selectivity assay (CEREP HTRF panel); assay type: biochemical
Lck = Lck (Homo sapiens (Human), UniProt P06239); test: Kinase selectivity assay (CEREP HTRF panel); assay type: biochemical
Lyn kinase = Lyn kinase (Homo sapiens (Human), UniProt P07948); test: Kinase selectivity assay (CEREP HTRF panel); assay type: biochemical
MAPKAPK2 = MAPKAPK2 (Homo sapiens (Human), UniProt P49137); test: Kinase selectivity assay (CEREP HTRF panel); assay type: biochemical
MEK1/MAP2K1 = MEK1/MAP2K1 (Homo sapiens (Human), UniProt Q02750); test: Kinase selectivity assay (CEREP HTRF panel); assay type: biochemical
p38alpha kinase = p38alpha kinase (Homo sapiens (Human), UniProt Q16539); test: Kinase selectivity assay (CEREP HTRF panel); assay type: biochemical
p38delta kinase = p38delta kinase (Homo sapiens (Human), UniProt O15264); test: Kinase selectivity assay (CEREP HTRF panel); assay type: biochemical
p38gamma kinase = p38gamma kinase (Homo sapiens (Human), UniProt P53778); test: Kinase selectivity assay (CEREP HTRF panel); assay type: biochemical
PDGFRbeta kinase = PDGFRbeta kinase (Homo sapiens (Human), UniProt P09619); test: Kinase selectivity assay (CEREP HTRF panel); assay type: biochemical
PDK1 = PDK1 (Homo sapiens (Human), UniProt O15530); test: Kinase selectivity assay (CEREP HTRF panel); assay type: biochemical
PKA = PKA (Homo sapiens (Human), UniProt P17612); test: Kinase selectivity assay (CEREP HTRF panel); assay type: biochemical
PKCalpha = PKCalpha (Homo sapiens (Human), UniProt P17252); test: Kinase selectivity assay (CEREP HTRF panel); assay type: biochemical
PKCbeta 1 = PKCbeta 1 (Homo sapiens (Human), UniProt P05771); test: Kinase selectivity assay (CEREP HTRF panel); assay type: biochemical
PKCbeta 2 = PKCbeta 2 (Homo sapiens (Human), UniProt P05771); test: Kinase selectivity assay (CEREP HTRF panel); assay type: biochemical
PKCgamma = PKCgamma (Homo sapiens (Human), UniProt P05129); test: Kinase selectivity assay (CEREP HTRF panel); assay type: biochemical
Ret kinase = Ret kinase (Homo sapiens (Human), UniProt P07949); test: Kinase selectivity assay (CEREP HTRF panel); assay type: biochemical
ROCK2 = ROCK2 (Homo sapiens (Human), UniProt O75116); test: Kinase selectivity assay (CEREP HTRF panel); assay type: biochemical
RSK2 = RSK2 (Homo sapiens (Human), UniProt P51812); test: Kinase selectivity assay (CEREP HTRF panel); assay type: biochemical
Src kinase = Src kinase (Homo sapiens (Human), UniProt P12931); test: Kinase selectivity assay (CEREP HTRF panel); assay type: biochemical
TRKA = TRKA (Homo sapiens (Human), UniProt P04629); test: Kinase selectivity assay (CEREP HTRF panel); assay type: biochemical
PLK1 = PLK1 (Homo sapiens (Human), UniProt P53350); test: PLK1 inhibition assay (Z-Lyte); assay type: biochemical
Method: PLK1 inhibition was determined using the Z-Lyte assay kit from Invitrogen (cat #PV3802). The assay was performed using the recommended manufacturer's instructions with 25 μM ATP and 8 nM PLK1 (Invitrogen cat #PV3501). The % inhibition values were determined according to the manufacturer's directions and IC50 values were obtained using a non-linear 4 point logistic curve fit (XLfit4, IDBS)

CaMK2alpha = CaMK2alpha (Homo sapiens (Human), UniProt Q9UQM7); test: Kinase selectivity assay (CEREP HTRF panel); assay type: biochemical
FLT-1 kinase (VEGFR1) = FLT-1 kinase (VEGFR1) (Homo sapiens (Human), UniProt P17948); test: Kinase selectivity assay (CEREP HTRF panel); assay type: biochemical

Sequence of FLT3 (P36888 27-993): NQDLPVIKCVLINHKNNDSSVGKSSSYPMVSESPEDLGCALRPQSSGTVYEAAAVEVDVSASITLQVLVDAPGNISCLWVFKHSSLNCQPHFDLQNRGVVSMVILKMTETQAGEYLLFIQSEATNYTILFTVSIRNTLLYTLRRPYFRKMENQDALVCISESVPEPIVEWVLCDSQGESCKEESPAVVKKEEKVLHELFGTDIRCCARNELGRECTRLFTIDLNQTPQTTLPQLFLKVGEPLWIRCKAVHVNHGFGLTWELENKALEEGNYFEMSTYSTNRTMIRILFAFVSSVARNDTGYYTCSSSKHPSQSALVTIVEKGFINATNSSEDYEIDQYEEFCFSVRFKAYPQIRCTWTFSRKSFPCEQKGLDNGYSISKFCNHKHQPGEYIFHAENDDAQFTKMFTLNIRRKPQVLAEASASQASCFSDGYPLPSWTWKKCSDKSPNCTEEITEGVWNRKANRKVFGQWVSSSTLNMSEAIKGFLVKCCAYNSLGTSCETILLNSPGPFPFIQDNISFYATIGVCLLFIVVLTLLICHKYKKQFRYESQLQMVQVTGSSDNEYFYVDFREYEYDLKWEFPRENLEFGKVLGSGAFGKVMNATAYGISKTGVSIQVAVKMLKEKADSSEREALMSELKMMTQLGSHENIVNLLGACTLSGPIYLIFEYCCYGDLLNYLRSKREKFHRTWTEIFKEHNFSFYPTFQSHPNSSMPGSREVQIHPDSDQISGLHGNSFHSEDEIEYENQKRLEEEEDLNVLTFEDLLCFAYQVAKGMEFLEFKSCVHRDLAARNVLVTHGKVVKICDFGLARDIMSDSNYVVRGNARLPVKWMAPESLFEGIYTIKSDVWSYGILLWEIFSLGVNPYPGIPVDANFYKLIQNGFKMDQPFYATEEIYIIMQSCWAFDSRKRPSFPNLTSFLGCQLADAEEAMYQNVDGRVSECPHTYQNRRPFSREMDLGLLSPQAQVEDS
Sequence of KDR kinase (VEGFR2) (P35968 20-1356): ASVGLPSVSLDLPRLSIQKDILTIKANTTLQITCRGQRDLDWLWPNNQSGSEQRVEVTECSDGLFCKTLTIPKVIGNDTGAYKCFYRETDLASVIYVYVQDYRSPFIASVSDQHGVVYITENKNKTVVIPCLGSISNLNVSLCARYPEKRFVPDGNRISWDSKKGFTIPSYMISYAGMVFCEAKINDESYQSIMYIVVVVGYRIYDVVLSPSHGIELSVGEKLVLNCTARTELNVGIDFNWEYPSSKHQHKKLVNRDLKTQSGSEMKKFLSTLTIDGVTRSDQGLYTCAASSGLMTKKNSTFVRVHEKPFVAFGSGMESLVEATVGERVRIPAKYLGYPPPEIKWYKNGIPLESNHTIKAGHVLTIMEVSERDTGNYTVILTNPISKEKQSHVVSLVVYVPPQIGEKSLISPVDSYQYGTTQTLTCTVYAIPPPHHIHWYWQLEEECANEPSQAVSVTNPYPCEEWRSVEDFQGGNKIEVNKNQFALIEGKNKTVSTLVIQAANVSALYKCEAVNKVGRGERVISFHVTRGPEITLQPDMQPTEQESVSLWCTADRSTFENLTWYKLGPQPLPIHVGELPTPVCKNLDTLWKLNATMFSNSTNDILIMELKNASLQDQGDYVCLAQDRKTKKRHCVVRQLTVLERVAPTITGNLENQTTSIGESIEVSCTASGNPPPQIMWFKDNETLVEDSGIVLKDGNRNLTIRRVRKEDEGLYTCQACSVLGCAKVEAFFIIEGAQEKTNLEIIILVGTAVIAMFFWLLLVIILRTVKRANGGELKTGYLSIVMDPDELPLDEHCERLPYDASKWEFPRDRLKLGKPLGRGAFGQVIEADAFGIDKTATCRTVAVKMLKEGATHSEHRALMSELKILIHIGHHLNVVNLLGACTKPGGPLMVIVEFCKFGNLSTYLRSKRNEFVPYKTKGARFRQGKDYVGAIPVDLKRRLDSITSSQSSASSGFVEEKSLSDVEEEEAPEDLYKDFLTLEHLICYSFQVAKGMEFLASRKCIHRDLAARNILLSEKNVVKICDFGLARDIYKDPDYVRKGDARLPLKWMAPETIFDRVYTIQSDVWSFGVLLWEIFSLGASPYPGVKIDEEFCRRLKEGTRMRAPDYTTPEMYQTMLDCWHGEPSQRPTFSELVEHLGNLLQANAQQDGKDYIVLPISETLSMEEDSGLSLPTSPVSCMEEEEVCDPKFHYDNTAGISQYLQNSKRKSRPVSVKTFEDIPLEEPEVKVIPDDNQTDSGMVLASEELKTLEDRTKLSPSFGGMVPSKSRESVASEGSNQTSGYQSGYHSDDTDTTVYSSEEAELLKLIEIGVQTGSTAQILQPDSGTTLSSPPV
Sequence of p38delta kinase (O15264 whole entry): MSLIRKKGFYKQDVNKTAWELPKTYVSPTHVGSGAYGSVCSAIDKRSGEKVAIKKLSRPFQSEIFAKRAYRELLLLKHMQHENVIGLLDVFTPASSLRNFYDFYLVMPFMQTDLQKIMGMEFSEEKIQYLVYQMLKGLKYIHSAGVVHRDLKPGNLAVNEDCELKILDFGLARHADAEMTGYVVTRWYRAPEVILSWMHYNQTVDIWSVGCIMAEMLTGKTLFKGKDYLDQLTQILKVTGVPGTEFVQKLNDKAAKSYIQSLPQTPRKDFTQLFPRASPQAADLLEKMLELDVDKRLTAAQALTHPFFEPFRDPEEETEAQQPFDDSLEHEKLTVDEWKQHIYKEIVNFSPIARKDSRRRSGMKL
Sequence of p38alpha kinase (Q16539 whole entry): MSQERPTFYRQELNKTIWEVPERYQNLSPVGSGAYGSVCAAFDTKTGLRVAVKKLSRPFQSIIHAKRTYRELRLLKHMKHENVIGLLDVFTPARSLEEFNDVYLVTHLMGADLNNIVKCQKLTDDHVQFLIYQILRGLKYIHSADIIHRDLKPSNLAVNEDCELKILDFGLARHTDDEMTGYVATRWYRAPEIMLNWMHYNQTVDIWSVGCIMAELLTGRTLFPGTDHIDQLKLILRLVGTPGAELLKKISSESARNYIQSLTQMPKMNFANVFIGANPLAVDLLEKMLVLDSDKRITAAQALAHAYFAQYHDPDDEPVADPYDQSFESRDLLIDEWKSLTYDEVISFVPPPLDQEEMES
Sequence of RSK2 (P51812 whole entry): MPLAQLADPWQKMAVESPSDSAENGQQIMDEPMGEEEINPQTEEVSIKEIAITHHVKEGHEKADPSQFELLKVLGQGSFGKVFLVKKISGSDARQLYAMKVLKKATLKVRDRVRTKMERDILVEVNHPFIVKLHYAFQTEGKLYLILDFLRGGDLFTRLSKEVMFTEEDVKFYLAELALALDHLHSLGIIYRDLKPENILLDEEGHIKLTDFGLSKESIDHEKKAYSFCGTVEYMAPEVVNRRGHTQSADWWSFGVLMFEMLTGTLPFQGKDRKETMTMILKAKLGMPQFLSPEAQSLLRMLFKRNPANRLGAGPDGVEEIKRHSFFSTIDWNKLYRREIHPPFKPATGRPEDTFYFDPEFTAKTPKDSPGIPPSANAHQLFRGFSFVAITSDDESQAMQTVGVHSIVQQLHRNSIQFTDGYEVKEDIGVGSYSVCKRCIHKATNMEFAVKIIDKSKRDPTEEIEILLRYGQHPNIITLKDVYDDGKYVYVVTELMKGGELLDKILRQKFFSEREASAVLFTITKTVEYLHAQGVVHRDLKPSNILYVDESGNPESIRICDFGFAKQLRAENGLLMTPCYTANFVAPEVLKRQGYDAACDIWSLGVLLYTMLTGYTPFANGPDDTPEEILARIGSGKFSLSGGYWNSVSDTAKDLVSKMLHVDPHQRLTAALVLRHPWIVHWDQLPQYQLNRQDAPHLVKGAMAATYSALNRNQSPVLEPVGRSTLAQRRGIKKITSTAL
Sequence of BMX kinase (Etk) (P51813 whole entry): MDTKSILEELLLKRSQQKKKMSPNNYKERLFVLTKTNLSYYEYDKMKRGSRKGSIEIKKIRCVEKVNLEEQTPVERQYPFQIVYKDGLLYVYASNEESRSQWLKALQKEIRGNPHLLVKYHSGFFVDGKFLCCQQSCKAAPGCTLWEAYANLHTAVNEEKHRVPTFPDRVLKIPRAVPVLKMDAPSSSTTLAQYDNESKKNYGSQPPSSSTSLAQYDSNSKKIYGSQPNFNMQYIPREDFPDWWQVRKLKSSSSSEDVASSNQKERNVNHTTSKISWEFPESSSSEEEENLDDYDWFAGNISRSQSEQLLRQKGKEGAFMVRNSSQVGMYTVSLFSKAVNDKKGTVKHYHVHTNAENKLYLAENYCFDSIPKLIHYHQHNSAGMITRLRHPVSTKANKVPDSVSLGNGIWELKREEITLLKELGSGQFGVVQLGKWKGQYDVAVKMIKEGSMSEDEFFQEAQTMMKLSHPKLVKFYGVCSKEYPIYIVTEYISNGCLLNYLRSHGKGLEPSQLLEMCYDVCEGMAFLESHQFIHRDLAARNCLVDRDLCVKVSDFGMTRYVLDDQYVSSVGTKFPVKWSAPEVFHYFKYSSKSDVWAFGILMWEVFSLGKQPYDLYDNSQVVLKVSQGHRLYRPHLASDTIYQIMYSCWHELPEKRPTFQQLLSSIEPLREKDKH
Sequence of Fyn kinase (P06241 whole entry): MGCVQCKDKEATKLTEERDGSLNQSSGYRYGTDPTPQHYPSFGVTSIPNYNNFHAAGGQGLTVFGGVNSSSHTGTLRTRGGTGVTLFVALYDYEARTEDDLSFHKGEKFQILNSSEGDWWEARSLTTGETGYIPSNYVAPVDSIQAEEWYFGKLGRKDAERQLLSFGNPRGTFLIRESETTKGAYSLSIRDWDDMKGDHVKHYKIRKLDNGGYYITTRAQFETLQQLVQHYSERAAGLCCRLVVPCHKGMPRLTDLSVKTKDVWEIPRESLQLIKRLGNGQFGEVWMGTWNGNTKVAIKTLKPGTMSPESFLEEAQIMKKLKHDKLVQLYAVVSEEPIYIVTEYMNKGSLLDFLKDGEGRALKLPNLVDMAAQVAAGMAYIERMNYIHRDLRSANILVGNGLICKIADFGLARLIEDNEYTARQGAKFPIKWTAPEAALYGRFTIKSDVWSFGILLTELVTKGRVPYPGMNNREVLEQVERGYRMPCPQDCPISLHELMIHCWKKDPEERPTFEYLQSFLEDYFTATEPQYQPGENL

COc1ccc2c(c1)[C@]1(C[C@H]1c1ccc3c(-c4ccc(N5CCN(C)CC5)nc4)n[nH]c3c1)C(=O)N2 (relative stereo) [Example A13, (1R*,2S*)-5′-Methoxy-2-(3-(6-(4-methylpiperazin-1-yl)pyridin-3-yl)-1H-indazol-6-yl)spiro[cyclopropane-1,3′-indolin]-2′-one]
inhibition at 1 µM (Aurora A): < 50% | % Inhibition @ 10 uM, AMPKalpha (AMPKalpha): 8% | inhibition at 10 µM (FLT3): 86% | inhibition at 10 µM (KDR kinase (VEGFR2)): 6% | anti-angiogenic effect (tube formation) (HUV-EC-C cells): anti-agiogenic effects at submicromolar concentrations

O=C1Nc2ccccc2[C@]12C[C@H]2c1ccc2c(/C=C/c3ccncc3)n[nH]c2c1 (relative stereo) [Example A22, 1R*,2S*)-(E)-2-(3-(2-(pyridin-4-yl)vinyl)-1H-indazol-6-yl)spiro-[cyclo-propane-1,3′-indolin]-2′-one]
inhibition at 10 µM (PLK2): ≤ 50% | inhibition at 10 µM (PLK3): ≤ 50% | inhibition at 10 µM (Abl): 97% | inhibition at 10 µM (Akt1/PKBalpha): -1% | inhibition at 10 µM (BMX kinase (Etk)): 71% | inhibition at 10 µM (Brk): 41% | inhibition at 10 µM (CaMK4): -8% | inhibition at 10 µM (CDC2/CDK1 (cycB)): 93% | inhibition at 10 µM (CHK1): 37% | inhibition at 10 µM (CHK2): 4% | inhibition at 10 µM (c-Met kinase): 97% | inhibition at 10 µM (CSK): 99% | inhibition at 10 µM (EphB4 kinase): 99% | inhibition at 10 µM (ERK1): 8% | inhibition at 10 µM (ERK2 (P42mapk)): 11% | inhibition at 10 µM (FGFR4 kinase): 56% | inhibition at 10 µM (FLT3): 100% | inhibition at 10 µM (Fyn kinase): 87% | inhibition at 10 µM (IGF1R kinase): 22% | inhibition at 10 µM (IRK (InsR)): 21% | inhibition at 10 µM (JNK 2): 32% | inhibition at 10 µM (KDR kinase (VEGFR2)): 98% | inhibition at 10 µM (Lck): 97% | inhibition at 10 µM (Lyn kinase): 99% | inhibition at 10 µM (MAPKAPK2): 4% | inhibition at 10 µM (MEK1/MAP2K1): 12% | inhibition at 10 µM (p38alpha kinase): 32% | inhibition at 10 µM (p38delta kinase): -22% | inhibition at 10 µM (p38gamma kinase): -15% | inhibition at 10 µM (PDGFRbeta kinase): 88% | inhibition at 10 µM (PDK1): 69% | inhibition at 10 µM (PKA): -6% | inhibition at 10 µM (PKCalpha): 7% | inhibition at 10 µM (PKCbeta 1): 0% | inhibition at 10 µM (PKCbeta 2): 11% | inhibition at 10 µM (PKCgamma): 8% | inhibition at 10 µM (Ret kinase): 99% | inhibition at 10 µM (ROCK2): 88% | inhibition at 10 µM (RSK2): 48% | inhibition at 10 µM (Src kinase): 26% | inhibition at 10 µM (TRKA): 100% | anti-angiogenic effect (tube formation) (HUV-EC-C cells): anti-agiogenic effects at submicromolar concentrations

CN(C)Cc1ccc(/C=C/c2n[nH]c3cc([C@@H]4C[C@@]45C(=O)Nc4ccccc45)ccc23)cc1 (relative stereo) [Example A23, (1R*,2S*)-(E)-2-(3-(4-((dimethylamino)methyl)styryl)-1H-indazol-6-yl)spiro[cyclopropane-1,3′-indolin]-2′-one 2,2,2-trifluoroacetate]
inhibition at 10 µM (PLK1): ≤ 50% | inhibition at 10 µM (PLK2): ≤ 50% | inhibition at 10 µM (PLK3): ≤ 50% | anti-angiogenic effect (tube formation) (HUV-EC-C cells): anti-agiogenic effects at submicromolar concentrations

O=C1Nc2ccccc2[C@]12C[C@H]2c1ccc2cn[nH]c2c1 (racemic) [Example A2, (1R*,2S*)-2-(1H-indazol-6-yl)spiro[cyclopropane-1,3′-indolin]-2′-one]
inhibition at 10 µM (Abl): 3% | inhibition at 10 µM (Akt1/PKBalpha): -2% | inhibition at 10 µM (BMX kinase (Etk)): -3% | inhibition at 10 µM (Brk): 1% | inhibition at 10 µM (CaMK2alpha): 41% | inhibition at 10 µM (CaMK4): 7% | inhibition at 10 µM (CHK1): -4% | inhibition at 10 µM (CHK2): -10% | inhibition at 10 µM (c-Met kinase): 15% | inhibition at 10 µM (CSK): 9% | inhibition at 10 µM (EphB4 kinase): 11% | inhibition at 10 µM (ERK1): 4% | inhibition at 10 µM (ERK2 (P42mapk)): 9% | inhibition at 10 µM (FGFR4 kinase): 0% | inhibition at 10 µM (FLT-1 kinase (VEGFR1)): 1% | inhibition at 10 µM (FLT3): 62% | inhibition at 10 µM (Fyn kinase): 7% | inhibition at 10 µM (IGF1R kinase): 20% | inhibition at 10 µM (IRK (InsR)): 4% | inhibition at 10 µM (JNK 2): -2% | inhibition at 10 µM (KDR kinase (VEGFR2)): 14% | inhibition at 10 µM (Lck): 17% | inhibition at 10 µM (Lyn kinase): 26% | inhibition at 10 µM (MAPKAPK2): -4% | inhibition at 10 µM (MEK1/MAP2K1): 4% | inhibition at 10 µM (p38alpha kinase): 6% | inhibition at 10 µM (p38delta kinase): -10% | inhibition at 10 µM (p38gamma kinase): 4% | inhibition at 10 µM (PDGFRbeta kinase): 4% | inhibition at 10 µM (PDK1): 4% | inhibition at 10 µM (PKA): 0% | inhibition at 10 µM (PKCalpha): -2% | inhibition at 10 µM (PKCbeta 1): 1% | inhibition at 10 µM (PKCbeta 2): 4% | inhibition at 10 µM (PKCgamma): 7% | inhibition at 10 µM (Ret kinase): 14% | inhibition at 10 µM (ROCK2): 39% | inhibition at 10 µM (RSK2): 17% | inhibition at 10 µM (Src kinase): -10% | inhibition at 10 µM (TRKA): 54%
